Reference: patent US8247211B2, “Glycopeptide antibiotics” (American Cyanamid Company, priority 2001, dated 2012)
Values after ≈ are worked out from the molar mass of the structure shown.

Columns and labels:
[1] = tested on: Enterococcus sp.; assay: In vitro antibacterial evaluation: minimum inhibitory concentration (MIC), broth dilution method; assay type: cell-based
Method in brief: (§1)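 Using Muller-Hinton II […] and an inoculum of 5×10^5 CFU/mL, antibiotic dilutions from 64 down to 0.06 μg/mL were tested following NCCLS M7-A2. The MIC is the lowest concentration inhibiting growth, including in methicillin-, penicillin- or vancomycin-resistant clinical isolates.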

[2] = tested on: Escherichia coli; assay: as above; assay type: cell-based; conditions: strain GC 4560
Method in brief: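 Inoculum: 5×10^5 CFU/mL. Range: 64-0.06 μg/mL. Medium: Muller-Hinton II […]; NCCLS M7-A2 broth dilution. Endpoint: lowest concentration inhibiting growth. Strains include methicillin-, penicillin- and/or vancomycin-resistant clinical isolates.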

[3] = tested on: Staphylococcus sp.; assay: as above; assay type: cell-based; conditions: broth dilution, 18 hours at 35° C.
Method in brief: as §1

[4] = tested on: Streptococcus sp.; assay: as above; assay type: cell-based
Method in brief: as §1

[5] = tested on: Staphylococcus aureus-SMITH (GC 4543); assay: Acute lethal infection in mice (ED50); assay type: in vivo; conditions: female CD-1 mice, intraperitoneal challenge, intravenous dose 30 min. after infection, 7 day survival ratios
Method in brief: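 Groups of five female CD-1 mice per dose got intravenous antibiotic in saline or 5% dextrose half an hour after intraperitoneal infection sufficient to kill controls within 24-48 hr. Seven-day survival data from three experiments were combined to derive ED50.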

[6] = Anatomic pathology (heart and kidney histopathology) in mice; assay type: in vivo, CD-1 mice; conditions: 20 mg/kg intravenously daily for 9 days, microscopic histopathology on day 10
Protocol: 20-day-old CD-1 mice were divided into a vehicle control group (5 mice) and a treatment group (5 mice). Samples of glycopeptide antibiotics were administered at 20 mg/kg intravenously daily for 9 days.
Samples of tissues from necropsied mice were formalin-fixed, paraffin-embedded, sectioned, stained with hematoxylin and eosin, and examined microscopically. Histopathologic findings were recorded. These findings were subjectively graded on a scale corresponding to slight, mild, moderate, marked and severe as compared to untreated controls.

CC(c1ccccc1)C1NC(=O)CNC(=O)C(CO)NC(=O)C(C(O)C2CN(Cc3ccc4ccccc4c3)C(=N)N2C2OC(CO)C(O)C(O)C2O)NC(=O)C(C(O)C2CNC(=N)N2)NC(=O)C(Cc2ccc(OC3OC(CO)C(OC4OC5COC6(OC5C(O)C4O)C4CC5CC(C4)CC6C5)C(O)C3O)cc2)NC1=O (stereo not drawn) [Example 78]
MIC Enterococcus faecalis (GC 2242) ([1]; Enterococcus faecalis (GC 2242), broth dilution, 18 hours at 35° C.): 16 µg/mL (≈ 10.2 µM) | MIC Enterococcus faecalis (GC 2691) ([1]; Enterococcus faecalis (GC 2691), broth dilution, 18 hours at 35° C.): 16 µg/mL (≈ 10.2 µM) | MIC Enterococcus faecalis (GC 3059) ([1]; Enterococcus faecalis (GC 3059), broth dilution, 18 hours at 35° C.): 16 µg/mL (≈ 10.2 µM) | MIC Enterococcus faecalis (ATCC 29212) ([1]; strain ATCC 29212): 8 µg/mL (≈ 5.1 µM) | MIC Enterococcus faecalis (GC 2242) ([1]; strain GC 2242): 16 µg/mL (≈ 10.2 µM) | MIC Enterococcus faecium (GC 2243) ([1]; strain GC 2243): 8 µg/mL (≈ 5.1 µM) | MIC Enterococcus faecalis (GC 2691) ([1]; strain GC 2691): 16 µg/mL (≈ 10.2 µM) | MIC Enterococcus faecalis (GC 3059) ([1]; strain GC 3059): 16 µg/mL (≈ 10.2 µM) | MIC Enterococcus faecalis (GC 4552) ([1]; strain GC 4552): 8 µg/mL (≈ 5.1 µM) | MIC Enterococcus faecalis (GC 4553) ([1]; strain GC 4553): 8 µg/mL (≈ 5.1 µM) | MIC Enterococcus faecalis (GC 4554) ([1]; strain GC 4554): 16 µg/mL (≈ 10.2 µM) | MIC Enterococcus faecium (GC 4556) ([1]; strain GC 4556): 16 µg/mL (≈ 10.2 µM) | MIC Enterococcus faecium (GC 4557) ([1]; strain GC 4557): 2 µg/mL (≈ 1.28 µM) | MIC Enterococcus avium (GC 4558) ([1]; strain GC 4558): 4 µg/mL (≈ 2.55 µM) | MIC Enterococcus faecalis (GC 6189) ([1]; strain GC 6189): 16 µg/mL (≈ 10.2 µM) | MIC Escherichia coli (GC 4560) [2]: 4 µg/mL (≈ 2.55 µM) | MIC Coagulase Negative Staphylococcus (GC 4547) [3]: 4 µg/mL (≈ 2.55 µM) | MIC Coagulase Negative Staphylococcus (GC 4548) [3]: 4 µg/mL (≈ 2.55 µM) | MIC Coagulase Negative Staphylococcus (GC 4549) [3]: 8 µg/mL (≈ 5.1 µM) | MIC Coagulase Negative Staphylococcus (GC 4551) [3]: 8 µg/mL (≈ 5.1 µM) | MIC Coagulase Negative Staphylococcus (GC 6257) [3]: 2 µg/mL (≈ 1.28 µM) | MIC Staphylococcus aureus (ATCC 29213) [3]: 8 µg/mL (≈ 5.1 µM) | MIC Staphylococcus aureus (GC 1131) [3]: 8 µg/mL (≈ 5.1 µM) | MIC Staphylococcus aureus (GC 3051) [3]: 8 µg/mL (≈ 5.1 µM) | MIC Staphylococcus aureus (GC 3053) [3]: 8 µg/mL (≈ 5.1 µM) | MIC Staphylococcus aureus (GC 4541) [3]: 4 µg/mL (≈ 2.55 µM) | MIC Staphylococcus aureus (GC 4542) [3]: 8 µg/mL (≈ 5.1 µM) | MIC Staphylococcus aureus (GC 4544) [3]: 8 µg/mL (≈ 5.1 µM) | MIC Staphylococcus aureus (GC 4545) [3]: 8 µg/mL (≈ 5.1 µM) | MIC Staphylococcus aureus SMITH (GC 4543) [3]: 4 µg/mL (≈ 2.55 µM) | MIC Staphylococcus haemolyticus (GC 4546) [3]: 4 µg/mL (≈ 2.55 µM) | MIC Staphylococcus aureus-SMITH (GC 4543) ([3]; strain SMITH GC 4543): 4 µg/mL (≈ 2.55 µM) | MIC Streptococcus agalactiae (GC 4564) ([4]; Streptococcus agalactiae (GC 4564), broth dilution, 18 hours at 35° C.): 1 µg/mL (≈ 0.638 µM) | MIC Streptococcus pneumoniae (ATCC 6301) ([4]; Streptococcus pneumoniae (ATCC 6301), broth dilution, 18 hours at 35° C.): 1 µg/mL (≈ 0.638 µM) | MIC Streptococcus pneumoniae (GC 1894) ([4]; Streptococcus pneumoniae (GC 1894), broth dilution, 18 hours at 35° C.): 0.25 µg/mL (≈ 0.159 µM) | MIC Streptococcus pneumoniae (GC 4565) ([4]; Streptococcus pneumoniae (GC 4565), broth dilution, 18 hours at 35° C.): 2 µg/mL (≈ 1.28 µM) | MIC Streptococcus pyogenes (GC 4563) ([4]; Streptococcus pyogenes (GC 4563), broth dilution, 18 hours at 35° C.): 0.5 µg/mL (≈ 0.319 µM) | MIC Streptococcus pneumoniae (ATCC 6301) ([4]; strain ATCC 6301): 1 µg/mL (≈ 0.638 µM) | MIC Streptococcus pneumoniae (GC 1894) ([4]; strain GC 1894): 0.25 µg/mL (≈ 0.159 µM) | MIC Streptococcus pyogenes (GC 4563) ([4]; strain GC 4563): 0.5 µg/mL (≈ 0.319 µM) | MIC Streptococcus agalactiae (GC 4564) ([4]; strain GC 4564): 1 µg/mL (≈ 0.638 µM) | MIC Streptococcus pneumoniae (GC 4565) ([4]; strain GC 4565): 2 µg/mL (≈ 1.28 µM) | median effective dose (ED50), Staphylococcus aureus-SMITH (GC 4543) [5]: 2 mg/kg | Anatomical Pathology (Day 10), Heart [6]: 0 | Anatomical Pathology (Day 10), Kidney [6]: ++
